Numbers after ± are expanded uncertainties.
Assay: xn = mol fraction of the nth substance listed
Conditions: 298.15 K, 101 kPa, Liquid

CCCC(=O)O [butanoic acid] + C1COCO1
Conditions	mass density [kg/m3]	viscosity [mPa·s]
x2 = 0	952.8 ± 0.8	1.396 ± 0.023
x2 = 0.1167	963.1 ± 0.8	1.297 ± 0.021
x2 = 0.2292	973.7 ± 0.8	1.202 ± 0.02
x2 = 0.3376	984.3 ± 0.8	1.111 ± 0.019
x2 = 0.4422	995.3 ± 0.8	1.023 ± 0.017
x2 = 0.5432	1006.1 ± 0.8	0.938 ± 0.016
x2 = 0.6408	1016.9 ± 0.8	0.854 ± 0.015
x2 = 0.7351	1027.2 ± 0.8	0.77 ± 0.013
x2 = 0.8263	1037.4 ± 0.8	0.688 ± 0.012
x2 = 0.9146	1047.3 ± 0.9	0.608 ± 0.011

CCC(C)=O [butanone] + C1COCO1
x2 = 0
Conditions	mass density [kg/m3]	viscosity [mPa·s]
–	798.1 ± 0.6	0.373 ± 0.007

C1COCO1 [1,3-dioxolane] + CCC(C)=O
Conditions	mass density [kg/m3]	viscosity [mPa·s]
x1 = 0.0976	818.9 ± 0.6	0.384 ± 0.008
x1 = 0.1957	840.5 ± 0.7	0.397 ± 0.008
x1 = 0.2944	863.1 ± 0.7	0.411 ± 0.008
x1 = 0.3935	886.8 ± 0.7	0.426 ± 0.008
x1 = 0.4933	911.8 ± 0.7	0.441 ± 0.009
x1 = 0.5935	938.1 ± 0.8	0.456 ± 0.009
x1 = 0.6943	965.5 ± 0.8	0.473 ± 0.009
x1 = 0.7956	994.2 ± 0.8	0.491 ± 0.009
x1 = 0.8975	1024.5 ± 0.8	0.51 ± 0.01
x1 = 1	1057.1 ± 0.9	0.531 ± 0.01

CCCCOC(C)=O [butyl ethanoate] + C1COCCO1
Conditions	mass density [kg/m3]	viscosity [mPa·s]
x2 = 0	874.4 ± 0.7	0.668 ± 0.012
x2 = 0.1278	887.5 ± 0.7	0.682 ± 0.012
x2 = 0.2479	901 ± 0.7	0.692 ± 0.012
x2 = 0.361	914.9 ± 0.7	0.708 ± 0.013
x2 = 0.4678	929.2 ± 0.7	0.739 ± 0.013
x2 = 0.5687	944.1 ± 0.8	0.779 ± 0.014
x2 = 0.6641	959.4 ± 0.8	0.822 ± 0.014
x2 = 0.7547	975.3 ± 0.8	0.866 ± 0.015
x2 = 0.8406	991.8 ± 0.8	0.939 ± 0.016
x2 = 0.9223	1008.9 ± 0.8	1.035 ± 0.017

C1COCCO1 [1,4-dioxane] + CCCCOC(C)=O
x1 = 1
Conditions	mass density [kg/m3]	viscosity [mPa·s]
–	1026.5 ± 0.8	1.196 ± 0.02

CCCCN [1-butanamine] + C1COCCO1
Conditions	mass density [kg/m3]	viscosity [mPa·s]
x2 = 0	731.9 ± 0.6	0.493 ± 0.009
x2 = 0.0855	753.4 ± 0.6	0.509 ± 0.01
x2 = 0.1738	776.1 ± 0.6	0.524 ± 0.01
x2 = 0.265	800.1 ± 0.6	0.541 ± 0.01
x2 = 0.3594	825.8 ± 0.7	0.56 ± 0.01
x2 = 0.4569	853.3 ± 0.7	0.59 ± 0.011
x2 = 0.5579	882.8 ± 0.7	0.637 ± 0.011
x2 = 0.6625	914.7 ± 0.7	0.699 ± 0.012
x2 = 0.7709	949.2 ± 0.8	0.792 ± 0.014
x2 = 0.8834	986.4 ± 0.8	0.941 ± 0.016

CCC(C)=O [butanone] + C1COCCO1
Conditions	mass density [kg/m3]	viscosity [mPa·s]
x2 = 0	798.1 ± 0.6	0.373 ± 0.007
x2 = 0.0833	817 ± 0.6	0.391 ± 0.008
x2 = 0.1698	836.5 ± 0.7	0.411 ± 0.008
x2 = 0.2597	856.8 ± 0.7	0.436 ± 0.008
x2 = 0.353	877.9 ± 0.7	0.464 ± 0.009
x2 = 0.4501	900.1 ± 0.7	0.512 ± 0.01
x2 = 0.5511	923.3 ± 0.7	0.576 ± 0.011
x2 = 0.6563	947.2 ± 0.8	0.65 ± 0.012
x2 = 0.766	972.2 ± 0.8	0.751 ± 0.013
x2 = 0.8805	998.5 ± 0.8	0.901 ± 0.015

C1COCCO1 [1,4-dioxane] + CCC(C)=O
x1 = 1
Conditions	mass density [kg/m3]	viscosity [mPa·s]
–	1026.5 ± 0.8	1.196 ± 0.02

CCCC(=O)O [butanoic acid] + C1COCCO1
Conditions	mass density [kg/m3]	viscosity [mPa·s]
x2 = 0	952.8 ± 0.8	1.396 ± 0.023
x2 = 0.1	961.7 ± 0.8	1.504 ± 0.025
x2 = 0.2	970.3 ± 0.8	1.57 ± 0.026
x2 = 0.3	978.4 ± 0.8	1.587 ± 0.026
x2 = 0.4	986.1 ± 0.8	1.572 ± 0.026
x2 = 0.5	993.4 ± 0.8	1.507 ± 0.025
x2 = 0.6	1000.2 ± 0.8	1.443 ± 0.024
x2 = 0.7	1006.8 ± 0.8	1.362 ± 0.022
x2 = 0.8	1013.1 ± 0.8	1.293 ± 0.021
x2 = 0.9	1019.4 ± 0.8	1.241 ± 0.021

C1COCO1 [1,3-dioxolane] + CCCCOC(C)=O
Conditions	mass density [kg/m3]	viscosity [mPa·s]
x1 = 0.1484	890.7 ± 0.7	0.621 ± 0.011
x1 = 0.2816	906.9 ± 0.7	0.599 ± 0.011
x1 = 0.4019	923.3 ± 0.7	0.588 ± 0.011
x1 = 0.5111	940.3 ± 0.8	0.583 ± 0.011
x1 = 0.6106	957.8 ± 0.8	0.577 ± 0.011
x1 = 0.7017	976.1 ± 0.8	0.571 ± 0.01
x1 = 0.7853	995.2 ± 0.8	0.565 ± 0.01
x1 = 0.8625	1015 ± 0.8	0.556 ± 0.01
x1 = 0.9338	1035.6 ± 0.9	0.544 ± 0.01
x1 = 1	1057.1 ± 0.9	0.531 ± 0.01

C1COCCO1 [1,4-dioxane] + CCCCN
x1 = 1
Conditions	mass density [kg/m3]	viscosity [mPa·s]
–	1026.5 ± 0.8	1.196 ± 0.02

C1COCO1 [1,3-dioxolane] + CCCC(=O)O
x1 = 1
Conditions	mass density [kg/m3]	viscosity [mPa·s]
–	1057.1 ± 0.9	0.531 ± 0.01

From the NIST ThermoML archive (doi:10.1021/je0504109)
